Measured values published in paper PMC8256334, “Simultaneous Determination of a Novel PD-L1 Inhibitor, IMMH-010, and Its Active Metabolite, YPD-29B, in Rat Biological Matrices by Polarity-Switching Liquid Chromatography-Tandem Mass Spectrometry: Application to ADME Studies” (Frontiers in Pharmacology, 2021).
“And” between values parts separate entries of the source, which are not always exact repeats. Equal values may be shown once. Read-outs that look alike come from different tables or passages of the source.

Key:
[1] = PK study in rats after single i.g. administration of IMMH-010 maleate; format: in vivo, Sprague-Dawley rats; details: rat plasma; for AUC(0-t) / Cmax / MRT last / Tmax / AUC(0-inf) / MRT inf / half-life: female, Sprague-Dawley, po, n = 5; for AUC(0-t) / Cmax / MRT last / AUC(0-inf) / MRT inf / half-life: mean ± SD; for MRT last: read-out: MRT(0-t); for Tmax: median (range); for MRT inf: read-out: MRT(0-∞); for half-life: rat, plasma, read-out: t1/2β (converted)
Description: (§1) Female Sprague-Dawley rats (200 ± 20 g, Vital River, Beijing, China) were kept in standard environmental conditions. Rats were fasted overnight with free access to water and randomly assigned to different groups before the experiments. All animal protocols were approved by the Institute Animal Care and Welfare Committee of the Institute of Materia Medica, Chinese Academy of Medical Sciences and Peking Union Medical College.
IMMH-010 maleate was suspended in 0.5% sodium carboxymethyl cellulose. The rats were intragastrically (i.g.) administered IMMH-010 maleate at doses of 10, 30, and 100 mg/kg. Blood samples were withdrawn via the orbital plexus into heparinized tubes with NaF at 5, 15, and 30 min and 1, 2, 4, 6, 8, 12, 24, 36, and 48 h. Plasma was immediately prepared by centrifugation at 5,000 rpm for 10 min. All samples were stored at −20°C prior to analysis. The PK parameters of IMMH-010 and YPD-29B were calculated using the Linear Trapezoidal with Linear Interpolation method by WinNonlin software version 6.3 based on a noncompartmental model (Pharsight Corporation, Mountain View, United States ).

[2] = Excretion study in rats (urine and feces); format: in vivo, Sprague-Dawley rats; details: for excretion in feces, % Of administered dose: i.g. IMMH-010 maleate 10 mg/kg, n = 5
Method: as §1
After i. g. administration of IMMH-010 maleate (10 mg/kg), rats were housed in separate metabolite cages to collect their urine and feces: 0–12, 12–24, 24–36, 36–48, and 48–72 h for urine and 0–24, 24–48, and 48–72 h for feces. Fecal samples were dried in air. Urine samples were stored at −20°C prior to analysis.

[3] = Stability in rat plasma; format: in vitro ADME; details: for Accuracy (RE, %) / Measured conc.: n = 5
Method: Plasma: IMMH-010 is an ester-containing compound. […] Therefore, heparin sodium and NaF were dissolved with 0.9% w/v sodium chloride to prepare a mixture of 0.5% heparin sodium and 500 mM NaF. All blood was withdrawn into EP tubes containing this mixture (1:9 v/v mixture:blood) followed by plasma separation. The plasma standards for IMMH-010 were prepared at 1, 2, 5, 10, 20, 80, 120 and 200 ng/ml, and those for YPD-29B were prepared at 2.5, 5, 10, 20, 50, 400, 600 and 1,000 ng/ml. QC samples were prepared at 1, 2, 40 and 160 ng/ml for IMMH-010 and 2.5, 5, 200 and 800 ng/ml for YPD-29B.
For short-term and long-term stability, plasma samples were kept at 4°C for 4 h and −20°C for 3 months, respectively. To evaluate freeze-thaw stability, samples were frozen at −20°C for 24 h and thawed at 4°C for three cycles. […] Stability assays of IMMH-010 and YPD-29B were performed at two QC levels (high and low QC) (n = 5).

[4] = single i.g. IMMH-010 maleate 10 mg/kg
[5] = single i.g. IMMH-010 maleate 30 mg/kg
[6] = single i.g. IMMH-010 maleate 100 mg/kg
[7] = prepared rat plasma samples, at 15°C in auto-sampler (24 h), spiked 2 ng/ml IMMH-010, 5 ng/ml YPD-29B
[8] = prepared rat plasma samples, at 15°C in auto-sampler (24 h), spiked 160 ng/ml IMMH-010, 800 ng/ml YPD-29B
[9] = prepared rat plasma samples, at 15°C in auto-sampler (48 h), spiked 2 ng/ml IMMH-010, 5 ng/ml YPD-29B
[10] = prepared rat plasma samples, at 15°C in auto-sampler (48 h), spiked 160 ng/ml IMMH-010, 800 ng/ml YPD-29B
[11] = rat plasma, 4°C (4 h), spiked 2 ng/ml IMMH-010, 5 ng/ml YPD-29B
[12] = rat plasma, 4°C (4 h), spiked 160 ng/ml IMMH-010, 800 ng/ml YPD-29B
[13] = rat plasma, stored at −20°C (3 months), spiked 2 ng/ml IMMH-010, 5 ng/ml YPD-29B
[14] = rat plasma, stored at −20°C (3 months), spiked 160 ng/ml IMMH-010, 800 ng/ml YPD-29B
[15] = rat plasma, three freeze–thaw cycles, spiked 2 ng/ml IMMH-010, 5 ng/ml YPD-29B
[16] = rat plasma, three freeze–thaw cycles, spiked 160 ng/ml IMMH-010, 800 ng/ml YPD-29B

**Q.** For `CC(C)OC(=O)C(CO)NCc1cc(Cl)c(OCc2cccc(-c3ccccc3)c2Br)cc1OCc1cccnc1` (stereo not drawn) [IMMH-010, 2-[4-(2-bromo-biphenyl-3-ylmethoxy)-5-chloro-2-(pyridin-3-ylmethoxy)-benzylamino]-3-hydroxy-propionic acid isopropyl ester], which AUC(0-t) [1, 4] is on record?
**A.** 8.5 ± 3.67 ng·h/mL

**Q.** What about the Cmax [1, 4] of the same compound?
**A.** 8.45 ± 3.27 ng/mL

**Q.** What about the MRT last [1, 4] of the same compound?
**A.** 0.8 ± 0.13 h

**Q.** And the Tmax [1, 4]?
**A.** 0.5 h

**Q.** And the AUC(0-inf) [1, 5]?
**A.** 44.1 ± 20.6 ng·h/mL

**Q.** What about the AUC(0-t) [1, 5] of the same compound?
**A.** 37.5 ± 13.5 ng·h/mL

**Q.** And the Cmax [1, 5]?
**A.** 28.4 ± 13 ng/mL

**Q.** And the MRT last [1, 5]?
**A.** 1.09 ± 0.21 h

**Q.** What about the MRT inf [1, 5] of the same compound?
**A.** 1.49 ± 0.3 h

**Q.** What about the Tmax [1, 5] of the same compound?
**A.** 0.5 h

**Q.** And the AUC(0-inf) [1, 6]?
**A.** 134 ± 45.7 ng·h/mL

**Q.** And the AUC(0-t) [1, 6]?
**A.** 129 ± 45.6 ng·h/mL

**Q.** What about the Cmax [1, 6] of the same compound?
**A.** 71.4 ± 34 ng/mL

**Q.** What about the MRT last [1, 6] of the same compound?
**A.** 1.82 ± 0.53 h

**Q.** And the MRT inf [1, 6]?
**A.** 2.11 ± 0.69 h

**Q.** What about the Tmax [1, 6] of the same compound?
**A.** 0.5 h

**Q.** And the half-life ([1]; 30 mg/kg, single i.g. IMMH-010 maleate 30 mg/kg)?
**A.** 0.98 ± 0.28 h

**Q.** And the half-life ([1]; 100 mg/kg, single i.g. IMMH-010 maleate 100 mg/kg)?
**A.** 1.63 ± 0.49 h

**Q.** What about the “dose dependence of AUC” value ([1]; dose range 10–100 mg/kg IMMH-010 maleate, oral) of the same compound?
**A.** proportional to the dose

**Q.** And the “excretion in feces, % Of administered dose” value ([2]; time 24 h)?
**A.** 6.97 ± 5.69 % Of administered dose

**Q.** What about the “excretion in feces, % Of administered dose” value ([2]; time 48 h) of the same compound?
**A.** 7.99 ± 5.66 % Of administered dose

**Q.** And the “excretion in feces, % Of administered dose” value ([2]; time 72 h)?
**A.** 7.99 % Of administered dose and 7.99 ± 5.66 % Of administered dose

**Q.** What about the “share of the dose recovered in the urine and feces as this analyte” value ([2]; urine and feces within 72 h, rats, oral IMMH-010 maleate) of the same compound?
**A.** 7.99%

**Q.** And the “stability in rat plasma with esterase inhibitor” value ([3]; 4°C, rat plasma containing 50 mM NaF, preliminary results)?
**A.** stable

**Q.** And the “Accuracy (RE, %)” value [3, 7]?
**A.** −6.0%

**Q.** And the Measured conc. [3, 7]?
**A.** 1.88 ± 0.21 ng/mL

**Q.** What about the “Accuracy (RE, %)” value [3, 8] of the same compound?
**A.** −7.5%

**Q.** What about the Measured conc. [3, 8] of the same compound?
**A.** 148 ± 4 ng/mL

**Q.** What about the “Accuracy (RE, %)” value [3, 9] of the same compound?
**A.** 2.0%

**Q.** What about the Measured conc. [3, 9] of the same compound?
**A.** 2.04 ± 0.07 ng/mL

**Q.** And the “Accuracy (RE, %)” value [3, 10]?
**A.** −3.8%

**Q.** And the Measured conc. [3, 10]?
**A.** 154 ± 4 ng/mL

**Q.** And the “stability during the sample preparation, storage and analysis” value ([3]; rat plasma: 4°C 4 h, −20°C 3 months, three freeze-thaw cycles, autosampler 10°C 48 h)?
**A.** stable

**Q.** And the “Accuracy (RE, %)” value [3, 11]?
**A.** 2.5%

**Q.** What about the Measured conc. [3, 11] of the same compound?
**A.** 2.05 ± 0.10 ng/mL

**Q.** And the “Accuracy (RE, %)” value [3, 12]?
**A.** 8.1%

**Q.** And the Measured conc. [3, 12]?
**A.** 173 ± 20 ng/mL

**Q.** What about the “Accuracy (RE, %)” value [3, 13] of the same compound?
**A.** 12.0%

**Q.** What about the Measured conc. [3, 13] of the same compound?
**A.** 2.24 ± 0.10 ng/mL

**Q.** What about the “Accuracy (RE, %)” value [3, 14] of the same compound?
**A.** 3.8%

**Q.** What about the Measured conc. [3, 14] of the same compound?
**A.** 166 ± 4 ng/mL

**Q.** And the “Accuracy (RE, %)” value [3, 15]?
**A.** 5.5%

**Q.** And the Measured conc. [3, 15]?
**A.** 2.11 ± 0.22 ng/mL

**Q.** What about the “Accuracy (RE, %)” value [3, 16] of the same compound?
**A.** −1.9%

**Q.** What about the Measured conc. [3, 16] of the same compound?
**A.** 157 ± 4 ng/mL
